Patent US20060045953A1 (priority 2004, published 2006)

molecular target: T1, hT1R2/hT1R3 sweet receptor (Homo sapiens, UniProt Q7RTX0+Q8TE23); assay: In vitro hT1R2/hT1R3 sweet taste receptor activation assay (FLIPR, dose response); format: cell-based; conditions: Table E, Sweet Enhancer Amides; read-out: Sweet EC50
T1 construct: expressed in transfected cells; host or cells: HEK293 derivative stably expressing Gα15, clone S-9
T1 sequence (Q8TE23 20-839): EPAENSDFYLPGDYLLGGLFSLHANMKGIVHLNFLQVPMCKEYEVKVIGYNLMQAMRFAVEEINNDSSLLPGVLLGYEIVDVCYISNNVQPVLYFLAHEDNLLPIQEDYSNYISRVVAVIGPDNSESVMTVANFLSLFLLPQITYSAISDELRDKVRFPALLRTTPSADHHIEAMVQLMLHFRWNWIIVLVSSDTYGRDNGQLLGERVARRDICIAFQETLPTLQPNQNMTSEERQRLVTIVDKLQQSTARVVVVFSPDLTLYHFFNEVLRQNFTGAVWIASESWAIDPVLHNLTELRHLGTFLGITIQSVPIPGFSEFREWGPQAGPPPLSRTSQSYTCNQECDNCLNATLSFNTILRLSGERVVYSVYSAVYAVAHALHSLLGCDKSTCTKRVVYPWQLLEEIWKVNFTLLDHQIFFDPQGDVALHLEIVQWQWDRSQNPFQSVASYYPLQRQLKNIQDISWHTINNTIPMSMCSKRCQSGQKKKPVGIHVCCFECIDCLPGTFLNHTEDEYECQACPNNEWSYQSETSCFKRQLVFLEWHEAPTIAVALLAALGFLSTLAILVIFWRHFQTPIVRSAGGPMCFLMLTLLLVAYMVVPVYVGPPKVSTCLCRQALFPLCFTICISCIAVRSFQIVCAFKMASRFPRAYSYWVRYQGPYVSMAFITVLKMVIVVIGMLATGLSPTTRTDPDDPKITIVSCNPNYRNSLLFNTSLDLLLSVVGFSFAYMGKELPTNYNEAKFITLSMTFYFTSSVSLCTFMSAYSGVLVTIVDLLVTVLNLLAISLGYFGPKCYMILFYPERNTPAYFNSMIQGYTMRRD
T1 sequence (Q7RTX0 21-852): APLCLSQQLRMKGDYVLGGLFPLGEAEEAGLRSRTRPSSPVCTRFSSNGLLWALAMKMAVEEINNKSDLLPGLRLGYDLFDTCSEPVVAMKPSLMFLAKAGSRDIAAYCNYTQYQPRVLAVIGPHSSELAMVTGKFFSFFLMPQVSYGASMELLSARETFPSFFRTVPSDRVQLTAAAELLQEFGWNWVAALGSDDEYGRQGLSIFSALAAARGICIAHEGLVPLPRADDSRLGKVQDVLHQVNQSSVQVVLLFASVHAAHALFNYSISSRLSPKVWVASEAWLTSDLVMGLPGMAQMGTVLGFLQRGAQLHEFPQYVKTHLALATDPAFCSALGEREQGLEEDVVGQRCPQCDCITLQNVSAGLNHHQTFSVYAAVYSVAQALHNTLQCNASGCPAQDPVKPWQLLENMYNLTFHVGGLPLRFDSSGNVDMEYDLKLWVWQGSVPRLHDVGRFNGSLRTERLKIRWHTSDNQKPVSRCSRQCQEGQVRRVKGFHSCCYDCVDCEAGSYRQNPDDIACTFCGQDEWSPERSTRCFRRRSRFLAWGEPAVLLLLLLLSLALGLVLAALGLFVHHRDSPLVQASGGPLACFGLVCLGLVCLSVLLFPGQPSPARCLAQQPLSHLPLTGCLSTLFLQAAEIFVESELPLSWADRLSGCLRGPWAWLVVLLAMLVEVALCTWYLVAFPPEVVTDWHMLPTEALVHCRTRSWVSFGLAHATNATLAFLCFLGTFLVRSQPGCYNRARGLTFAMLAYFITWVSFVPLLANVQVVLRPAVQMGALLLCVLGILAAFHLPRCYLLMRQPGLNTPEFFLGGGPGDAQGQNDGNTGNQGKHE
In short: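 Dose-response at 10 concentrations (60 nM–30 µM, duplicates) measured as Fluo-3AM calcium fluorescence on FLIPR in hT1R2/hT1R3 S-9 cells, in D-PBS at room temperature. Responses scaled to 400 mM D-fructose. EC50s from regression with all curve parameters floating.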

| SMILES | EC50 [nM] |
| --- | --- |
| COc1c(Cl)cc(C(=O)Nc2ccccc2C)cc1Cl [Example E88, 3,5-dichloro-4-methoxy-N-o-tolylbenzamide] | 1840 |
| O=C(Nc1ccc(F)cc1F)c1cc(Cl)ccc1O [Example E89, 5-Chloro-N-(2,4-difluoro-phenyl)-2-hydroxy-benzamide] | 2560 |
| N#Cc1c(F)cccc1NC(=O)c1ccc(Cl)cc1Cl [Example E90, 2,4-Dichloro-N-(2-cyano-3-fluoro-phenyl)-benzamide] | 2710 |
| N#Cc1ccc(NC(=O)c2c(Cl)cccc2Cl)cc1 [Example E91, 2,6-Dichloro-N-(4-cyano-phenyl)-benzamide] | 2740 |
| Cc1ccc(NC(=O)c2ccc(Cl)c(C)c2)c(C)c1 [Example E92, 4-chloro-N-(2,4-dimethylphenyl)-3-methylbenzamide] | 2740 |
| COc1ccc(NC(=O)c2cc(Cl)c(OC)c(Cl)c2)cc1 [Example E93, 3,5-dicbloro-4-methoxy-N-(4-methoxyphenyl)benzamide] | 3240 |
| COc1ccc(NC(=O)c2ccc(F)c(Cl)c2)c(OC)c1 [Example E94, 3-chloro-N-(2,4-dimethoxyphenyl)-4-fluorobenzamide] | 3560 |
| CSc1nc(C)c(C(=O)Nc2ccccc2)c(C)c1C#N [Example E95, 5-Cyano-2,4-dimethyl-6-methylsulfanyl-N-phenyl-nicotinamide] | 3580 |
| CC(C)(C)c1csc(NC(=O)c2ccncc2)n1 [Example E96, N-(4-tert-Butyl-thiazol-2-yl)-isonicotinamide] | 3730 |
| COc1c(Cl)ccc(Cl)c1C(=O)Nc1ccc(C)cc1C [Example E97, 3,6-Dichloro-N-(2,4-dimethyl-phenyl)-2-methoxy-benzamide] | 4250 |
| CCc1cccc(NC(=O)c2c(C)cccc2OC)c1 [Example E98, N-(3-ethylphenyl)-2-methoxy-6-methylbenzamide] | 4630 |
| Cc1cc(Br)cc(C)c1NC(=O)N1Cc2ccccc2C1 [Example E99, N-(4-bromo-2,6-dimethylphenyl)isoindoline-2-carboxamide] | 930 |
| Cc1cc([N+](=O)[O-])ccc1NC(=O)N1Cc2ccccc2C1 [Example E100, N-(2-methyl-4-nitrophenyl)isoindoline-2-carboxamide] | 1300 |
| O=C(Nc1ccc(F)cc1F)N1Cc2ccccc2C1 [Example E101, N-(2,4-difluorophenyl)isoindoline-2-carboxamide] | 1370 |
| Cc1c(NC(=O)N2Cc3ccccc3C2)cccc1[N+](=O)[O-] [Example E102, N-(2-methyl-3-nitrophenyl)isoindoline-2-carboxamide] | 2010 |
| O=C(Nc1ccc(F)c(F)c1F)N1Cc2ccccc2C1 [Example E103, N-(2,3,4-trifluorophenyl)isoindoline-2-carboxamide] | 2580 |
| Cc1ccc(NC(=O)N2Cc3ccccc3C2)cc1 [Example E104, N-p-tolylisoindoline-2-carboxamide] | 3050 |
| O=C(Nc1ccc(Cl)cc1)N1Cc2ccccc2C1 [Example E105, N-(4-chlorophenyl)isoindoline-2-carboxamide] | 3400 |
| O=C(Nc1ccccc1Cl)N1Cc2ccccc2C1 [Example E106, N-(2-chlorophenyl)isoindoline-2-carboxamide] | 3850 |
| O=C(Nc1ccc(Cl)cc1Cl)N1Cc2ccccc2C1 [Example E107, N-(2,4-dichlorophenyl)isoindoline-2-carboxamide] | 4150 |

| SMILES | EC50 [nM] |
| --- | --- |
| COc1ccc(NC(=O)N2Cc3ccccc3C2)cc1 [Example E108, N-(4-methoxyphenyl)isomdoline-2-carboxamide] | 4990 |
| O=C(Nc1ccc(Cl)cc1Cl)N1CCc2ccccc2C1 [Example E109, N-(2,4-dichlorophenyl)-3,4-dihydroisogumoline-2(1H)-carboxamide] | 2340 |
| N#Cc1ccccc1NC(=O)N1CCc2ccccc2C1 [Example E110, N-(2-cyanophenyl)-3,4-dihydroisoquinoline-2(1H)-carboxamide] | 2500 |
| Cc1ccc(NC(=O)N2CCc3ccccc3C2)cc1 [Example E111, N-p-tolyl-3,4-dihydroisoquinoline-2(1H)-carboxamide] | 4270 |
| Cc1c(Cl)cccc1NC(=O)N1CCc2ccccc2C1 [Example E112, N-(3-chloro-2-methylphenyl)-3,4-dihydroisoguinoline-2(1H)-carboxamide] | 4330 |
| COc1ccc(NC(=O)N2CCc3ccccc3C2)c(OC)c1 [Example E113, N-(2,4-dimethoxyphenyl)-3,4-dihydroisoquinoline-2(1H)-carboxamide] | 4440 |
| Cc1cc(Cl)ccc1NC(=O)N1Cc2cccc(C)c2C1 [Example E114, N-(4-chloro-2-methylphenyl)-4-methylisoindoline-2-carboxamide] | 190 |
| Cc1ccc(NC(=O)N2Cc3cccc(C)c3C2)c(C)c1 [Example E115, N-(2,4-dimethylphenyl)-4-methylisoindoline-2-carboxamide] | 250 |
| COc1ccc(NC(=O)N2Cc3cccc(C)c3C2)c(C)c1 [Example E116, N-(4-methoxy-2-methylphenyl)-4-methylisomdoline-2-carboxamide] | 710 |
| COc1cc(F)c(NC(=O)N2Cc3cccc(C)c3C2)c(OC)c1 [Example E117, N-(2-fluoro-4,6-dimethoxyphenyl)-4-methylisoindoline-2-carboxamide] | 90 |
| COc1ccc(NC(=O)N2Cc3cccc(C)c3C2)c(F)c1 [Example E118, N-(2-fluoro-4-methoxyphenyl)-4-methylisoindoline-2-carboxamide] | 100 |
| O=C(Nc1cccc2c1CCCC2)N1CCc2ccccc21 [Example E119, N-(5,6,7,8-tetrahydronaphthalen-1-yl)indoline 1-carboxamide] | 1060 |
| Cc1cccc(NC(=O)N2CCc3ccccc32)c1C [Example E120, N-(2,3-dimethylphenyl)indoline-1-carboxamide] | 2380 |
| COc1cccc(C(=O)NC2CCCc3c(OC)cccc32)c1O (stereo not shown) [Example E121, 2-hydroxy-3-methoxy-N-(5-methoxy-1,2,3,4-tetrahydronaphthalen-1-yl)benzamide] | 1610 |
| COc1cccc2c1CCCC2NC(=O)c1cccc(C)c1O (stereo not shown) [Example E122, 2-hydroxy-N-(5-methoxy-1,2,3,4-tetrahydronaphthalen-1-yl)-3-methylbenzamide] | 1950 |
| COc1cccc2c1CCCC2NC(=O)c1cccc(-c2ccccc2)c1O (stereo not shown) [Example E123, 2-hydroxy-N-(5-methoxy-1,2,3,4-tetrahydronaphthalen-1-yl)-3-phenylbenzamide] | 2560 |
| COc1cccc2c1CCCC2NC(=O)c1cccc(C(C)C)c1O (stereo not shown) [Example E124] | 2640 |
| CCCc1nocc1C(=O)N[C@@H]1CCCc2c(C)cc(C)cc21 [Example E125, (R)-N-(5,7-dimethyl-1,2,3,4-tetrahydronaphthalen-1-yl)-3-propylisoxazole-4-carboxamide] | 620 |
| Cc1cccc2c1CCC[C@H]2NC(=O)c1cccc(Cl)c1O [Example E126, (R)-3-chloro-2-hydroxy-N-(5-methyl-1,2,3,4-tetrahydronaphthalen-1-yl)benzamide] | 890 |
| CCc1nocc1C(=O)N[C@@H]1CCCc2c(C)cc(C)cc21 [Example E128, (R)-N-(5,7-dimethyl-1,2,3,4-tetrahydronaphthalen-1-yl)-3-ethylisoxazole-4-carboxamide] | 1240 |
